Results as given in article PMC9501983, “Transport and Permeation Properties of Dapivirine: Understanding Potential Drug-Drug Interactions” (Pharmaceutics, 2022).

Columns and labels:
[1] = parameters: method as in PMID 26034880; conditions: DPV ring clinical study (IPM 026); cited from earlier work
BCRP = target: T1, BCRP (Homo sapiens, UniProt Q9UNQ0); experiment: Bi-directional transport across MDCKII BCRP and WT/EV cell monolayers
T1 sequence (Q9UNQ0 1-655): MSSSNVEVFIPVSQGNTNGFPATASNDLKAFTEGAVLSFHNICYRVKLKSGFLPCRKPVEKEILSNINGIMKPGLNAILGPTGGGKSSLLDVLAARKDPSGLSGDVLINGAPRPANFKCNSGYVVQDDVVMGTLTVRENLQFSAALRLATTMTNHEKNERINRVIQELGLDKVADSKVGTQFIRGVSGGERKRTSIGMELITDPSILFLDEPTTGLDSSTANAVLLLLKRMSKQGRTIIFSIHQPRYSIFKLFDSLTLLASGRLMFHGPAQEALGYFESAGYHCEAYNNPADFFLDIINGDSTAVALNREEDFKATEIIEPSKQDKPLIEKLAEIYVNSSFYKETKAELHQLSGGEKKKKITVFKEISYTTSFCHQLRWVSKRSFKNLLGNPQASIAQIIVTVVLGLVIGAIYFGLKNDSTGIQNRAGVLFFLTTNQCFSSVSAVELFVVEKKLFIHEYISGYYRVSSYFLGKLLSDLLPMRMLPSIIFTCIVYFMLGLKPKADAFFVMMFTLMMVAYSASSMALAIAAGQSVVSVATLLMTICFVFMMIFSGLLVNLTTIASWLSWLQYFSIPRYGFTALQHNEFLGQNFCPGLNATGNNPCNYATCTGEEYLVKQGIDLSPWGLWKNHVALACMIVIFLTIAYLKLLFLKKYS

MRP4 = target: T2, MRP4 (Homo sapiens, UniProt O15439); experiment: ATPase assay (ADP-Glo Max) in MRP4 vesicles; assay type: biochemical; parameters: purchased Thermo Fisher Scientific; conditions: DPV 20 μM; prostaglandin E2 20 μM; 60 min, 37 °C
T2 sequence (O15439 1-1325): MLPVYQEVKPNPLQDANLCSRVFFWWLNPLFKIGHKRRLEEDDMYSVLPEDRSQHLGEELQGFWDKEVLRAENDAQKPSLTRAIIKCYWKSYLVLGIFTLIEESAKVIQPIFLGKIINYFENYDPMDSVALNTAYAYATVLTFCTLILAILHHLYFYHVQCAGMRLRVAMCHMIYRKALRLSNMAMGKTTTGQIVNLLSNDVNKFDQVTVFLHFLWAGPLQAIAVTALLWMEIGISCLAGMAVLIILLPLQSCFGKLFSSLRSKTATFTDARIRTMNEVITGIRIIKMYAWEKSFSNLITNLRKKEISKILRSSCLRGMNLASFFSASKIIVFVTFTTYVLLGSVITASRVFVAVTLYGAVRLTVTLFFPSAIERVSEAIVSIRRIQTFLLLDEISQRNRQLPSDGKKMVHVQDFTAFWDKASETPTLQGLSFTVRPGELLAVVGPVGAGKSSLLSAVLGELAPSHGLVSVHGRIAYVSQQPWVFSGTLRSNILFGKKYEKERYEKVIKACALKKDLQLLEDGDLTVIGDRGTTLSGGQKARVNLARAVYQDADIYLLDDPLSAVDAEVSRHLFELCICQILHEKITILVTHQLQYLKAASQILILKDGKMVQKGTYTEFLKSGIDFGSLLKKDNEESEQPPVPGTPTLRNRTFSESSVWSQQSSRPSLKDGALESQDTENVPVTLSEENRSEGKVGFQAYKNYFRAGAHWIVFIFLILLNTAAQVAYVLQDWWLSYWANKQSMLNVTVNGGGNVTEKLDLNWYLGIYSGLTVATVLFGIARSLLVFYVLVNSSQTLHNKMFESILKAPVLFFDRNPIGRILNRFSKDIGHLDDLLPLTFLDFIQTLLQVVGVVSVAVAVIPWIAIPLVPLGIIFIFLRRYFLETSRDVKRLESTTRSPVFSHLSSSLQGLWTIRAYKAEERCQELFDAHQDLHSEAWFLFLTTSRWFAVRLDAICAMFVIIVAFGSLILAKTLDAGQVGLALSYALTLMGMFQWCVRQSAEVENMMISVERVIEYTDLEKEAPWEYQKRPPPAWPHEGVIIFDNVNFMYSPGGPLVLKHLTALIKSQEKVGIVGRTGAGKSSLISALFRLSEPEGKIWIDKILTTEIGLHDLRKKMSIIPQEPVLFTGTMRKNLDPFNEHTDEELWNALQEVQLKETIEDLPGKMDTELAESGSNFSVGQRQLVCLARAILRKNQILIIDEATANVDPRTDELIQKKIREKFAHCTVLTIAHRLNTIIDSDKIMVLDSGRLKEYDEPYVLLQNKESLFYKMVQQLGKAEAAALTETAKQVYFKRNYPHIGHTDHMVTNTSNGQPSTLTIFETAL
Experimental: ATPase activity of MRP1 or MRP4 in transporter overexpressing membrane vesicles (10 μg of protein per assay) was measured by the ADP-Glo Max assay according to manufacturer’s protocol. The assay quantified the amount of ADP produced by the membrane vesicles over 60 min at 37 °C in the ATPase assay buffer (50 mM Tris-MOPS, 50 mM potassium chloride, 5 mM sodium azide, 2 mM dithiothreitol, 2 mM glutathione, 0.1 mM EGTA-Tris, and 10 mM magnesium chloride at pH 7.0). DPV was tested at 20 μM and compared to the baseline ATPase activity. A known MRP1 substrate, N-ethylmaleimide-S-glutathione (prepared by mixing N-ethylmaleimide and glutathione at a 1:1 molar ratio), at 10 mM and a known MRP4 substrate, prostaglandin E2, at 20 μM were used as positive controls. The reaction was initiated with 5 mM ATP and quenched with the ADP-Glo detection buffer. The amount of ADP produced was quantified by recording luminescence on a SpectraMax M3 plate reader (Molecular Devices, San Jose, CA, USA).

DPV ER in MDCKII BCRP cells with Ko143, reduced to % of ER without (BCRP; 0.5 μM DPV, 1 μM Ko143): 85%
Impact on Papp of nitrofurantoin across MDCKII BCRP monolayers (either direction) (BCRP; 5 μM DPV, 1 μM nitrofurantoin): no significant impact
Substrate status for BCRP (BCRP; cellular system): not a substrate
efflux ratio at 90 min, 0.5 μM (BCRP; dog, pH 7.4): 1.33
ATPase activity in MRP4 vesicles, % of baseline (MRP4): no significant stimulation
SMILES: Cc1cc(C)c(Nc2ccnc(Nc3ccc(C#N)cc3)n2)c(C)c1 [DPV, dapivirine]
DPV tissue concentration [1]: 1.8 µM
